± gives the uncertainty stated by the source.
Tests used:
[1] = test system: KeratinoSens (HaCaT ARE-luciferase) cells; test: AC50 of Nrf2/ARE luciferase induction; higher = less potent; details: exposure time: 24 h
THP-1 [2] = test: efficacy of IL-8 induction relative to DMSO (% activity); higher = stronger induction; details: exposure time: 18 h
[3] = test system: lysine peptide Ac-RFAAKAA-COOH; test: efficacy of lysine peptide change (negative = depletion) (% activity); higher = less depletion; details: incubation time: 24 h
[4] = test system: cysteine peptide Ac-RFAACAA-COOH; test: efficacy of cysteine peptide change (negative = depletion) (% activity); higher = less depletion; details: incubation time: 24 h
[5] = test system: KeratinoSens (HaCaT ARE-luciferase) cells; test: efficacy of ARE luciferase induction relative to DMSO (% activity over DMSO); higher = stronger induction; details: exposure time: 24 h
[6] = test system: cysteine peptide Ac-RFAACAA-COOH; test: AC50 of cysteine peptide concentration-response (direction given by sign of efficacy); higher = less potent; details: incubation time: 24 h
[7] = test system: KeratinoSens (HaCaT ARE-luciferase) cells; test: cytotoxicity AC50 (CellTiter-Fluor viability); higher = less cytotoxic; details: exposure time: 24 h
THP-1 [8] = test: AC50 of IL-8 secretion induction; higher = less potent; details: exposure time: 18 h

Compound | AC50 of Nrf2/ARE luciferase induction [1] [µM] | efficacy of IL-8 induction (THP-1 [2]) | efficacy of lysine peptide change [3] | efficacy of cysteine peptide change [4] | efficacy of ARE luciferase induction [5] | AC50 [6] [µM] | cytotoxicity AC50 [7] [µM] | AC50 of IL-8 secretion induction (THP-1 [8]) [µM]
Nc1ccc(N)cc1 [1,4-Benzenediamine] | 39.8 | 19.1 ± 5.7 | 61 ± 17 | -107 ± 20 | 54.5 ± 20 | 9.58 ± 2.8 |  | 
CCCSS/C(CCO)=C(/C)N(C=O)Cc1cnc(C)nc1N [Prosultiamine] | 15.8 | 30.5 ± 12 | 154 ± 29 | -112 ± 9.3 | 433 ± 21 | 1.59 ± 0.18 | 26.1 ± 1.8 | 
Cc1c(C)n(CCN(C)C)c2ccc(C(=O)OCCN(C)C)cc12 [Amindocate] | 29.8 | -1.77 ± 3.1 | 58.5 ± 9.6 | 9.57 ± 11 | 96.2 ± 38 |  | 28.3 ± 9.3 | 
CC/C=C\C/C=C\C/C=C\CCCCCCCC(=O)OCC [Ethyl linolenate] | 18.4 | 14.7 ± 5.5 | -51.8 ± 5.7 | -100 ± 11 | 95.1 ± 71 | 9.27 ± 3.2 | 32.9 ± 2.2 | 
CC(C)=CC1C(C(=O)OCc2coc(Cc3ccccc3)c2)C1(C)C (stereo unspecified) [Resmethrin] | 46.5 | 4.15 ± 7.2 | -58 ± 4.8 | -122 ± 8.3 | 69.7 ± 30 | 58.1 ± 19 |  | 
[Cl][Bi]([Cl])([c]1ccccc1)([c]1ccccc1)[c]1ccccc1 [Triphenylbismuthine dichloride] | 14.2 | 92.2 ± 110 | 23.5 ± 22 | -96.9 ± 5.6 | 95.5 ± 39 | 0.85 ± 0.38 | 28.2 | 
Oc1ccc2ccccc2c1N=Nc1ccccc1 [C.I. Solvent Yellow 14] | 28.2 | 5.32 ± 9.2 | -31.1 ± 6.5 | -94.7 ± 4 | 49.8 ± 19 | 10.8 ± 3.5 |  | 
c1ccc(Nc2ccc(Nc3ccccc3)cc2)cc1 [N,N'-Diphenyl-p-phenylenediamine] | 22.5 | 9.77 ± 9.9 | -22.2 ± 3.3 | -119 ± 12 | 54.7 ± 14 | 23 ± 18 | 55.2 ± 14 | 
COc1ccc(-c2cc(=S)ss2)cc1 [Anethole trithione] | 22 | 38.6 ± 10 | -0.11 ± 7.8 | -84.1 ± 12 | 96.9 ± 78 |  | 34.2 ± 2.2 | 
Cl/C=C\C[N+]12CN3CN(CN(C3)C1)C2 [Chloroallyl methenamine chloride] | 73.7 | 6.91 ± 6.8 | -14.5 ± 14 | -102 ± 6.1 | 1290 ± 60 | 19.6 ± 4.8 |  | 
CCOCN(C(=O)CCl)c1c(C)cccc1CC [Acetochlor] | 53.6 | 8.32 ± 8.4 | 79.9 ± 12 | 11.4 ± 11 | 98.8 ± 68 |  | 55.2 ± 14 | 
CCOc1ccc2nc3cc(N)ccc3c(N)c2c1 [Ethacridine lactate monohydrate] | 29.4 | 13.6 ± 2.8 | 107 ± 12 | -93.5 ± 7.5 | 86.2 ± 47 | 0.29 ± 0.07 |  | 
CCCCNC(=O)OCC#CI [Carbamic acid, butyl-, 3-iodo-2-propynyl ester] | 27.3 | 20.3 ± 4.5 | 64.6 ± 18 | -92.5 ± 3.8 | 133 ± 50 | 1.05 ± 0.13 | 37.1 ± 4.7 | 
O=c1cc(-c2ccccc2)oc2ccc3ccccc3c12 [5,6-Benzoflavone] |  | 98 ± 14 |  |  | -34.9 ± 4.2 |  |  | 79.4
C=CC(=O)OCC(COC(=O)C=C)(COC(=O)C=C)COC(=O)C=C [Pentaerythritol tetraacrylate] | 15.8 | 23.5 ± 10 | -27.5 ± 6 | -102 ± 14 | 118 ± 5.8 | 3.11 ± 0.76 | 25.3 ± 4.1 | 
Cc1ccc2c(c1N)C(=O)c1ccccc1C2=O [1-Amino-2-methylanthraquinone] | 37.8 | 0 | -8.55 ± 7.6 | -101 ± 4.8 | 55.7 ± 35 | 24.3 ± 3.4 |  | 
c1ccc2cc3c(ccc4ccccc43)cc2c1 [Benz(a)anthracene] | 40 | 32.1 ± 4.5 | -36.8 ± 14 | -97.8 ± 2.9 | 126 ± 33 | 12.2 ± 1.7 |  | 
O=C(CCl)c1ccccc1 [2-Chloroacetophenone] | 35.5 | 29.4 ± 7.2 | 9.03 ± 16 | -94.1 ± 28 | 327 ± 92 | 49.4 ± 34 | 57 ± 12 | 
COP(=O)(OC)O/C(=C\Cl)c1cc(Cl)c(Cl)cc1Cl [Z-Tetrachlorvinphos] | 41.8 | 1.71 ± 3 | 75.2 ± 24 | 4.88 ± 8.5 | 72.1 ± 13 |  | 53.6 ± 16 | 
O=c1ssc(Cl)c1Cl [4,5-Dichloro-3H-1,2-dithiol-3-one] | 21.3 | 24.5 ± 3.5 | -36.4 ± 2.7 | -102 ± 9.4 | 92.3 ± 9.5 | 1.4 ± 0.39 | 37.8 ± 11 | 
O=C(Nc1cccc(Cl)c1)OCC#CCCl [Barban] | 35.5 | 34.1 ± 7.5 | 33.7 ± 4.6 | -52.5 ± 14 | 101 ± 30 |  | 55.2 ± 14 | 
Nc1ccc(Cl)cc1N [4-Chloro-1,2-diaminobenzene*] | 13.7 | 10.3 ± 2.3 | -6.76 ± 18 | -99.1 ± 6 | 70 ± 21 | 5.4 ± 2.3 |  | 
CC(C)(C)c1cc(O)c(C(C)(C)C)cc1O [2,5-Di-tert-butylbenzene-1,4-diol] | 42.1 | 40.9 ± 4.8 | -4 ± 6.9 | -80.8 ± 14 | 175 ± 86 | 85.9 ± 5.6 | 34.2 ± 2.2 | 
CC(C)CCCCCCCOC(=O)c1ccc(C(=O)OCCCCCCCC(C)C)c(C(=O)OCCCCCCCC(C)C)c1 [Triisodecyl trimellitate] | 42.2 | 13.5 ± 0.9 | -10.8 ± 18 | -22.8 ± 5 | 72.5 ± 41 | 19.9 |  | 
c1ccc2c(c1)OCC(C1=NCCN1)O2 (stereo unspecified) [Idazoxan] | 12.6 | 12.4 ± 3.5 | -1.64 ± 20 | -124 ± 14 | 39.9 ± 3.1 | 27.3 ± 3.8 | 22.4 | 
O=C(CCCCCCC(=O)Nc1ccccc1)NO [Vorinostat (SAHA)] | 11.7 | 7.76 ± 8.9 | 11.4 ± 21 | 0 | 597 ± 130 |  | 11.4 ± 2.1 | 
C[C@@H]1O[C@@H](O[C@@H]2C=C3CC[C@@H]4[C@H](CC[C@]5(C)[C@@H](c6ccc(=O)oc6)CC[C@]45O)[C@@]3(C)CC2)[C@H](O)[C@H](O)[C@H]1O [Proscillaridin] | 0.27 | 38.2 ± 14 | 14.3 ± 11 | 2.01 ± 3.5 | 246 ± 170 |  | 0.51 ± 0.11 | 
O=C(/C=C/C=C/c1ccc2c(c1)OCO2)N1CCCCC1 [Piperine] | 29.1 | 13.7 ± 14 | 1.32 ± 18 | -72.8 ± 22 | 76 ± 12 | 80.8 ± 18 | 44 ± 11 | 

From the supplement of paper PMC10933113
